From patent US20220110902A1, “Methods of treating amyloid-beta peptide diseases” (Ecole Polytechnique Federale de Lausanne, priority 2016, published 2022)

System: old C57BL/6J mice
Assay: NR treatment of aged C57BL/6J mice: muscle amyloid, Oxphos proteins, MSR
Assay type: in vivo, mouse
Procedure: Young (1 month old) and aged (20-24 months old) C57BL/6JRj mice were purchased from Janvier Labs. APP/PSEN1 mice (Tg(APPswe,PSEN1dE9)85Dbo/Mmjax) were purchased from JAX. C57BL/6JR mice were fed with pellets containing vehicle or NR (400 mg/kg/day) for 6-8 weeks, while APP/PSEN1 mice were fed NR pellets for 10 weeks, starting at the age of 4 months. The pellets were prepared by mixing powdered chow diet (20165, Harlan Laboratories) with water or with NR dissolved in water. Pellets were dried under a laminar flow hood for 48 hours. Mice were housed by groups of 2 to 5 animals per cage and randomized to 7-8 animals per experimental group according to their body weight. No blinding was used during the experiment procedures. Mouse: Total RNA was extracted from tissues using TriPure RNA isolation reagent (Roche) according to the product manual. Expression of selected genes was analyzed using the LightCycler480 system (Roche) and LightCycler® 480 SYBR Green I Master reagent (Roche). The beta-2-Microglobulin B2m gene was used as housekeeping reference. Mouse: Frozen cortex tissue samples were lysed by mechanical homogenization with RIPA buffer containing protease and phosphatase inhibitors, and analyzed by SDS-PAGE and western blot. Subsequently, the concentration of extracted protein was determined by using the Bio-Rad Protein Assay. Proteins were detected using the following antibodies: HSP60 (Enzo Life Science), CLPP (Sigma), anti-GAPDH (14C10) (Cell Signaling), LONP1 (Sigma), PINK1 (Novus Biologicals), LC3 A/B (Cell Signaling), SDHB (Oxphos cocktail, Abcam), MTCO1 (Abcam), Ubiquitin (Enzo), P62 (BD Transduction Laboratories), Phopsho P62 (Cell Signaling), VDAC (Abcam), β-Amyloid, 17-24 (4G8) (BioLegend). In addition to the housekeeping proteins, loading was monitored by Ponceau Red to ensure a homogeneous loading. Antibody detection reactions for all the immunoblot experiments were developed by enhanced chemiluminescence (Advansta) and imaged using the c300 imaging system (Azure Biosystems). Pixel intensity was quantified by using ImageJ software. […]

NC(=O)c1ccc[n+]([C@@H]2O[C@H](CO)[C@@H](O)[C@H]2O)c1 [NR, Nicotinamide Riboside triflate]
SDHB and MTCO1 protein levels in muscle (aged mice, NR 400 mg/kg/day for 6-8 weeks): partially restoring
A11- and 4G8 positive amyloid-like deposits in TA and forelimbs muscle (old mice, NR 400 mg/kg/day in pellets for 6-8 weeks): marked reduction
expression of MSR signature genes in muscle (quadriceps, NR 400 mg/kg/day for 6-8 weeks): increasing
